Data taken from patent publication US11655239B2 (SHANGHAI INSTITUTE OF MATERIAL MEDICA, CHINESE ACADEMY OF …, priority 2019, dated 2023).

Key:
[1] = target: DDR2 (Homo sapiens (Human), UniProt Q16832); experiment: DDR2 enzyme activity test (ELISA); type: biochemical; settings: read-out: DDR2 IC50
Protocol: The optical rotation and the inhibitory activity against DDR2 enzyme of the compounds S11-A and S11-B obtained by the resolution in Example 12, and the chirally synthesized compounds S11-A′ and S11-B′ in Example 13 were tested (referred to the operation in Effect example 1), and the results are shown in Table 3 below:
Detection method: Enzyme-linked immunosorbent assay (ELISA)
Test receptor tyrosine kinase: DDR2
The kinase used in the experiment was obtained by our laboratory using the insect baculovirus expression system to express and purify the recombinant protein containing the protein kinase region; polyglutamic acid-tyrosine peptide segment [Poly(Glu, Tyr) 4:1] and sodium vanadate were purchased from Sigma; the anti-phosphorylated monoclonal antibody PY99 was purchased from Santa Cruz; horseradish peroxidase labeled goat anti-murine secondary antibody was purchased from Calbiochem; ATP and OPD were purchased from Sangon Biotech (Shanghai) Co., Ltd.; the remaining reagents were purchased from Sinopharm Chemical Reagent Co., Ltd. The reaction ELISA plate (#2592) was purchased from Corning. The full-wavelength microplate reader for experiment reading was a product of Molecular Device, model: SpectraMax 190; the experimental water was distilled water produced by Sinopharm Group.
The compound was centrifuged at 12,000 g for 5 min, and DMSO was added to prepare a 10^-2M stock solution, which was vortexed evenly, then sonicated for 10 min and stored at −40° C. for later use. During the test, the compound was diluted with DMSO from the stock solution to 100 times the test concentration (the DMSO concentration in the system was 1%).
(§1) 1) Enzyme reaction substrate Poly(Glu, Tyr) 4:1 was diluted to 20 μg/mL with potassium-free PBS (10 mM sodium phosphate buffer, 150 mM NaCl, pH 7.2-7.4), and the microtiter plate was coated with 125 μL/well and placed at 37° C. for 12-16 hours of reaction. The liquid in the well was discard. The plate was washed three times with T-PBS (potassium-free PBS containing 0.1% Tween-20, 200 μL/well), 5 minutes each time. The ELISA plate was dried in an oven at 37° C. for 1 to 2 hours.
(§2) 2) Reaction buffer (50 mM HEPES pH 7.4, 50 mM MgCl2, 0.5 mM MnCl2, 0.2 mM Na3VO4, 1 mM DTT) diluted ATP solution (49 μL) was added to each well, 1 μL of the compound to be tested was added to each well, and then 50 μL of DDR2 kinase domain recombinant protein diluted in the reaction buffer was added to start the reaction. Two control wells without ATP were set in each experiment. The plate placed on a shaker (100 rpm) at 37° C. for 1 hour of reaction. The liquid in the well was discarded and the plate was washed three times with T-PBS.
(§3) 3) Antibody PY99 dilution solution (the antibody was diluted 1:500 with T-PBS containing BSA 5 mg/mL) was added at 100 μL/well, and shaken on a shaker at 37° C. for 0.5 hour of reaction. The liquid in the well was discarded and the plate was washed three times with T-PBS.
(§4) 4) Horseradish peroxidase labeled goat anti-murine secondary antibody dilution solution (the antibody is diluted 1:2000 with T-PBS containing BSA 5 mg/ml) was added at 100 μL/well, and shaken on a shaker at 37° C. for 0.5 hour of reaction. The liquid in the well was discarded and the plate was washed three times with T-PBS.
(§5) 5) 2 mg/ml of OPD color developing solution [diluted with 0.1 M citric acid-sodium citrate buffer (pH=5.4) containing 0.03% H2O2] was added at 100 μL/well and reacted for 1 to 10 minutes at 25° C. in the dark.
(§6) 6) 2M H2SO4 was added at 50 μL/well to stop the reaction, and a tunable wavelength microplate reader VERSAmax was used for reading at a wavelength of 490 nm.
The IC50 value was obtained by four-parameter regression using the software that came with the microplate reader.

[2] = target: Met (Homo sapiens (Human), UniProt P08581); experiment: Enzyme selectivity test (ELISA), Met; type: biochemical
Protocol: as §1, §2, §3, §4, §5, §6
The IC50 value was obtained by four-parameter regression using the software that came with the microplate reader. […]

[3] = test system: pulmonary fibrosis induced by bleomycin in mice; experiment: MASSON staining and α-SMA immunohistochemical staining of lung sections; type: in vivo, mouse; settings: Effect example 5, 30, 60, 90 mg/kg oral qd 12 days
Protocol: The grouping of mice is the same as that in Effect example 2.
1) Dewaxing to water of the paraffin sections: the sections were put into xylene I (20 minutes)-xylene II (29 minutes)-absolute ethanol I (5 minutes)-absolute ethanol II (5 minutes)-75% ethanol (5 minutes), and then washed with tap water.
2) Potassium dichromate staining: the sections were soaked in potassium dichromate overnight and washed with tap water.
3) Iron hematoxylin staining: iron hematoxylin solution A and B were mixed in an equal ratio to form an iron hematoxylin staining solution, then the sections were put into iron hematoxylin for about 3 minutes, washed with tap water, differentiated with a solution of hydrochloric acid in ethanol, and then rinsed with tap water.
4) Ponceau red acid fuchsin staining: the sections were put into a Ponceau red acid fuchsin solution for 5 to 10 minutes and rinsed with tap water.
5) Phosphomolybdic acid staining: the sections were put into an aqueous phosphomolybdic acid solution for 1 to 3 minutes.
6) Aniline blue staining: after the phosphomolybdic acid staining, the sections were not washed with water, but directly put into an aniline blue staining solution for staining for 3 to 6 minutes.
7) Differentiation: the sections were differentiated with 1% glacial acetic acid, and dehydrated with two cylinders of absolute ethanol. […]

Sequence of Met (P08581 25-1390): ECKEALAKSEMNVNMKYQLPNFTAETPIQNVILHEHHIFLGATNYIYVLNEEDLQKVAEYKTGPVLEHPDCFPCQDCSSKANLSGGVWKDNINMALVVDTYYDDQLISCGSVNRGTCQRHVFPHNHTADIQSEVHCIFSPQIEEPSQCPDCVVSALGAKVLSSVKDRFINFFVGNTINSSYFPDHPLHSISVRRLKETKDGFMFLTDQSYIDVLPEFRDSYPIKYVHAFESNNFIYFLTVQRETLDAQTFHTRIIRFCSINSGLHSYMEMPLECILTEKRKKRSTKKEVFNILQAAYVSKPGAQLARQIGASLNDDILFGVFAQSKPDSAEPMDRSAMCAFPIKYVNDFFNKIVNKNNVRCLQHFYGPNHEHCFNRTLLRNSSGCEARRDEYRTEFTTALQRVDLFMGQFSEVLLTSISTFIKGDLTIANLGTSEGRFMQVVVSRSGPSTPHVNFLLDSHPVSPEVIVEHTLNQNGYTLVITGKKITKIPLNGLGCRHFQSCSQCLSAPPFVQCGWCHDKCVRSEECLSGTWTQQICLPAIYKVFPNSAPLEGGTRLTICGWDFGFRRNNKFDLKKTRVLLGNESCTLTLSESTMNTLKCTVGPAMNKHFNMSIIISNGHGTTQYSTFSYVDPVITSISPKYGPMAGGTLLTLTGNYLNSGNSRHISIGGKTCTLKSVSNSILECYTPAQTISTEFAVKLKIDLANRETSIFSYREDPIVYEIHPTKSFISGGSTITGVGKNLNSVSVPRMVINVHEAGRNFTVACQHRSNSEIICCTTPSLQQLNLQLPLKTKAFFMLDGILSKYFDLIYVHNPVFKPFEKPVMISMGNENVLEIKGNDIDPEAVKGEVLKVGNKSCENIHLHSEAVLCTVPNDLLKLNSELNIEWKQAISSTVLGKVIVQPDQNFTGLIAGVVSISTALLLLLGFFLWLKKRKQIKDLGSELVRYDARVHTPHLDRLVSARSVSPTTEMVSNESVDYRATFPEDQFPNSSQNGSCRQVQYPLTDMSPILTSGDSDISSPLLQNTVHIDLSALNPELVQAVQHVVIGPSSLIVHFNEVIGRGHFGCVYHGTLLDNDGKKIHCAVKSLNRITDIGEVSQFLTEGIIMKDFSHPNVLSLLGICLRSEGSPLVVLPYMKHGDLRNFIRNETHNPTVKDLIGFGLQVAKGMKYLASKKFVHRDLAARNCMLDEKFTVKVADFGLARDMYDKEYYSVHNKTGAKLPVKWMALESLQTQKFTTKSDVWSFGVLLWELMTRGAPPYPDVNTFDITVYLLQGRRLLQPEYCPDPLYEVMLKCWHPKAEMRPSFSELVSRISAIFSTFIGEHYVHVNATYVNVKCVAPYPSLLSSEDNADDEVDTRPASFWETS
Sequence of DDR2 (Q16832 563-849): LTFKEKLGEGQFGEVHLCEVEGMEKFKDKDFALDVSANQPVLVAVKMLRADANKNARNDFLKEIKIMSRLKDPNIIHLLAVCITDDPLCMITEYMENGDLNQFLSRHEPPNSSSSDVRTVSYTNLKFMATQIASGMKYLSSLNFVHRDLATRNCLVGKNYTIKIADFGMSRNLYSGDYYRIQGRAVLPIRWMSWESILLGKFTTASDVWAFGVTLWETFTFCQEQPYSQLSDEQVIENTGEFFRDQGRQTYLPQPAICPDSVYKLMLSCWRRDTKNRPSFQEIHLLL

Question: `O=C(Nc1cccc(C(F)(F)F)c1)c1ccc(C2CC2)c(-c2ccc3nc(Nc4cnn(C5CC5)c4)ncc3c2)c1` [Compound S15, 4-cyclopropyl-3-(2-((1-cyclopropyl-1H-pyrazol-4-yl)amino)quinazolin-6-yl)-N-(3-(trifluoromethyl)phenyl)benzamide] was tested. Which IC50 [1] did it give?
Answer: 6.1 ± 0.5 nM

Question: And the IC50 [2]?
Answer: > 1000 nM

Question: What about the “expression of collagen and α-SMA (staining, immunohistochemistry)” value [3] of the same molecule?
Answer: decrease the expression of collagen and α-SMA in a dose-dependent manner

Question: And the “pulmonary fibrosis, MASSON staining” value [3]?
Answer: significantly reduce BLM-induced lung injury and inflammation, and can also reduce pulmonary fibrosis
